Source: patent US8771953B2, “Evaluation of the potential risk of drug induced mood disturbance and suicide: use of a dedicated platform” (Biocortech, priority 2008, dated 2014)
Read-outs that look alike come from different tables or passages of the source.

Experiments:
[1] = system: 5-HT2cR mRNA; test: Editing profile of 5-HT2cR mRNA isoforms by CE-SSCP (nested PCR) in SH-SY5Y cells; enzyme activity indexes worked out from the profile; format: cell-based, human; conditions: Homo sapiens, SH-SY5Y, 24 h
[2] = system: ADAR1a mRNA; test: Q-PCR of ADAR1a mRNA expression in SH-SY5Y cells; format: cell-based; conditions: Homo sapiens, 10 micromolar, 24 hours, read-out: QPCR: RNA expresion (% of variation) ADAR1a
Source text: ADAR1a RNA Expression in SH-SY5Y cells (Q-PCR, Applied TaqMan probes ref: Hs 01020780_m1).
(§1) The SH-SY5Y Human neuroblastoma cell line was purchased from ECACC (EC94030304 from the European Collection of Cell Cultures (ECACC)). The cell line SH-SY5Y is a thrice-cloned neuroblastoma, originally from SK-N-SH and first reported in 1978. A neuroblast-like subclone of SK-N-SH, named SH-SY, was subcloned as SH-SY5, which was subcloned again as SH-SY5Y (Biedler J L et al. Cancer Res. 1978; 38:3751-7). Cells were cultured in high glucose D-MEM medium (Sigma, ref D6546) supplemented with 10% dialysed FCS (PAA, ref. A15-507, lot A50708-0050), 2 mM Glutamine (Sigma, G7513) and a 1× mix of Antibiotic-Antimycotic Stabilized (Sigma, ref. A5955) at 37° C. under a humidified atmosphere of 5% CO2. The day preceeding drug or hIFNα treatment, SH-SY5Y cells were plated in 6-well plates at a density of 10^6 cells/well. One 6-well plate was used per experimental condition (concentration or treatment duration). The day after plating, culture medium was removed and cells were incubated for 24 hours with a 10 μM solution of the compound to be tested molecules or a 1000 IU/ml solution of hIFNα (PBL biomedical laboratories). For hIFNα dose-response experiment cells were incubated with 1, 10, 100, and 1000 IU/ml of hIFNα solutions. For hIFNα time-course experiment cells were treated for 24, 48, or 72 hours with a 1000 IU/ml solution of hIFNα. After the different treatments, cells were directly lysed in RLT lysis buffer and total RNA purified according to manufacturer's protocol (Qiagen, RNeasy Plus mini kit, ref. 74134). Total RNA was then reverse transcribed with Thermoscript RT-PCR system Plus Taq (Invitrogen, 11146-032) and the resulting cDNA used for CE-SSCP and quantitative real-time PCR.
(§2) In order to quantify levels of 5-HT2CR, ADAR1 and ADAR2 mRNA expression in SH-SY5Y cells or in prefrontal cortex, total blood and skin of Balb/cJ mice, first-strand cDNA was synthesized by reverse transcription and subjected to TaqMan quantitative real-time PCR analysis (Applied Biosystems). All probes and primers used for the quantitative PCRs were from Applied Bio systems (Gene Expression Assays, Assay-On-Demand) (see Table 1, Applied Biosystems primers and probes references): […]
(§3) Human GAPDH (product no. 4326317E; Applied Biosystems) or mouse GAPDH (product no. 4352339E; Applied Biosystems) were included in each multiplex PCR as an internal control. Real-time PCR and subsequent analysis were performed with a 48-well block StepOne RT PCR system (Applied Biosystems). Quantification of target gene expression in all samples was normalized to GAPDH expression by the equation Ct (target)−Ct (GAPDH)=ΔCt, where Ct is the threshold cycle number. The mean ΔCt value of samples from untreated mice or cells was determined and used as a reference point for the samples corresponding to treated animals or cells. Differences between untreated and treated animals or cells, including individual variation were calculated by the equation (ΔCt (individual treated samples)−ΔCt (mean of untreated samples)=ΔΔCt). Changes in target gene expression (n-fold) in each sample were calculated by 2^−ΔΔCt, from which the means and standard deviations (SD) were derived.
(§4) The SH-SY5Y Human neuroblastoma cell line was purchased from ECACC. Cells were cultured in high glucose D-MEM medium (Sigma, ref. D6546) supplemented with 10% dialysed FCS (PAA, ref. A15-507, lot A50708-0050), 2 mM Glutamine (Sigma, ref. G7513) and a 1× mix of Antibiotic-Antimycotic Stabilized (Sigma, ref. A5955) at 37° C. under a humidified atmosphere of 5% CO2. The day preceeding hIFNα or drug treatment, SH-SY5Y cells were plated in 6-well plates (Corning, Multiwell Plate, 6 well, Corning CellBIND Surface, ref 3335) at a density of 5; 7 or 9·10^6 cells/well for a 72-, 48- or 24-hour treatment respectively. Six or eight wells of 6-well plates were used per experimental condition (control, concentration or treatment duration).

[3] = system: ADAR1b mRNA; test: Q-PCR of ADAR1b mRNA expression in SH-SY5Y cells; format: cell-based; conditions: Homo sapiens, 10 micromolar, 24 hours, read-out: QPCR: RNA expresion (% of variation) ADAR1b
Experimental: as §1, §2, §3, §4

[4] = system: ADAR2 mRNA; test: Q-PCR of ADAR2 mRNA expression in SH-SY5Y cells; format: cell-based; conditions: Homo sapiens, 10 micromolar, 24 hours, read-out: QPCR: RNA expresion (% of variation) ADAR2
Experimental: as §1, §2, §3, §4

[5] = read-out: ENZYME ACTIVIY INDEX (% of variation) ADAR1
[6] = read-out: ENZYME ACTIVIY INDEX (% of variation) ADAR1 + 2
[7] = read-out: ENZYME ACTIVIY INDEX (% of variation) ADAR2
[8] = read-out: ENZYME ACTIVIY INDEX (% of variation) ADARI
[9] = read-out: ENZYME ACTIVIY INDEX (% of variation) ADARII
[10] = read-out: ENZYME ACTIVIY INDEX (% of variation) NE

SMILES | activation at 10 µM [1, 5] | activation at 10 µM [1, 6] | activation at 10 µM [1, 7] | activation at 10 µM [1, 8] | activation at 10 µM [1, 9] | activation at 10 µM [1, 10] | % change in ADAR1a mRNA expression at 10 µM [2] | percent change in mRNA expression at 10 µM [3] | percent change in ADAR2 mRNA expression at 10 µM [4]
Cc1cc2c(s1)Nc1ccccc1N=C2N1CCN(C)CC1 [Olanzapine] | -23.2% | 84.9% | 9.2% | -7.6% | 70.5% | 7% | -54% | 20% | 92%
NCC1(CC(=O)O)CCCCC1 [Gabapentin] | 19.2% | -28.5% | -26.7% | 10.1% | -28.1% | -8.3% | -42% | -34% | -21%
